Data: patent US10118947B2, “Modulation of structured polypeptide specificity” (BICYCLE THERAPEUTICS LIMITED, priority 2013, dated 2018)
pKi: −log10 of the molar value. Read-outs that look alike come from different tables or passages of the source. Numbered stars: 1 amine (or outer) side, 2 acyl side, 3 side chain; on linkers, the order of the positions; unused ones are H or OH. Bridge positions count the residues as written; N and C are the ends. Square brackets hold non-standard residues; d marks the D form. Peptide text beside a SMILES is read from it. Phe(4-guanidino) = N=C(N)Nc1ccc(C[C@H](N)C(=O)O)cc1; TBMB = c1c(C[*:1])cc(C[*:3])cc1C[*:2]; NMeH = CN[C@@H](Cc1c[nH]cn1)C(=O)O; NMeR = CN[C@@H](CCCNC(=N)N)C(=O)O; hArg = N=C(N)NCCCC[C@H](N)C(=O)O; NMeQ = CN[C@@H](CCC(N)=O)C(=O)O; NMeL = CN[C@@H](CC(C)C)C(=O)O; Phg = N[C@H](C(=O)O)c1ccccc1; Tle = CC(C)(C)[C@H](N)C(=O)O; Aze = O=C(O)[C@@H]1CCN1

Legend:
human plasma Kallikrein = target: T1, human plasma Kallikrein (Homo sapiens, UniProt P03952); assay: Functional enzyme inhibition assay with fluorogenic substrate Z-PheArg-AMC, human plasma Kallikrein; assay type: biochemical; conditions: for Ki: Table 26b, loop 1 and loop 2 modified derivatives, read-out: Ki (nM) (human kallikrein); for F (Kivar/KiWT) / pKi: Table 25a; for F (Kivar/KiWT): fold change of Ki of variant compared to WT; for pKi: α-N-methyl amino acid scan in Loop2, human plasma kallikrein, read-out: Ki
T1 construct: purchased Stratech, UK
T1 sequence (P03952 20-638): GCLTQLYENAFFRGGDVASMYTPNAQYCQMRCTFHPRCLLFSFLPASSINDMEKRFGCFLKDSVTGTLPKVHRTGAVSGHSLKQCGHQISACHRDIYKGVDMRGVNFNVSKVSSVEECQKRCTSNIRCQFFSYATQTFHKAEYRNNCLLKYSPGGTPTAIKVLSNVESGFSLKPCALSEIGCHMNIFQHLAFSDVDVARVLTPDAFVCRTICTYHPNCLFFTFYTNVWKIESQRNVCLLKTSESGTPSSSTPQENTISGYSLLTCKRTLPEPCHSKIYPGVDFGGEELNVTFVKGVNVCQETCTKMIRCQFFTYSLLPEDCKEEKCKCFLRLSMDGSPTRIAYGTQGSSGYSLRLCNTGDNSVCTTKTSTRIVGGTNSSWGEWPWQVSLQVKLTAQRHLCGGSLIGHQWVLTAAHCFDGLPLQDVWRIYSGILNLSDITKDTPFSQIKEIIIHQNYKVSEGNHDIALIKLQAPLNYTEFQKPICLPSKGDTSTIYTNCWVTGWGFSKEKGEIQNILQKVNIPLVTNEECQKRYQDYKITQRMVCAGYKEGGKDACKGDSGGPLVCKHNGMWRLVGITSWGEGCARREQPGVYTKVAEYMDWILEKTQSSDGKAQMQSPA
Method in brief: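 Rates of AMC release (excitation 360 nm, emission 460 nm) from 100 μM final Z-PheArg-AMC, 4% DMSO, were taken over the linear phase, typically 5 to 45 minutes. IC50 from four-parameter non-linear regression; Ki also derived.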

rat plasma Kallikrein [1] = target: T2, rat plasma Kallikrein (Rattus norvegicus, UniProt P14272); assay: Functional enzyme inhibition assay with fluorogenic substrate Z-PheArg-AMC, rat plasma Kallikrein; assay type: biochemical; conditions: Table 26b, loop 1 and loop 2 modified derivatives
T2 construct: polyhistidine tag (N, cleaved yes); proTEV cleavage site (pro-peptide linker) (N, cleaved yes); made in house; host or cells: HEK-293 (suspension-adapted)
T2 sequence (P14272 391-638 limits assumed): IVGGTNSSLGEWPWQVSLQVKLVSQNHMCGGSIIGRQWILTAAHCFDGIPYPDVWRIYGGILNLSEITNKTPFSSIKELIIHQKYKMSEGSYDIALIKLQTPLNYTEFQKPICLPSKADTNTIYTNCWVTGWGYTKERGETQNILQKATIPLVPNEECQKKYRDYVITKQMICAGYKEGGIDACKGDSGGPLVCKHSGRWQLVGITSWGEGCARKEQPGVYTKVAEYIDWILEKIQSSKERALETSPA
Description: Functional enzyme assays were conducted in 10 mM Tris HCl, 150 mM NaCl, 10 mM MgCl2, 1 mM CaCl2) and 1 mg/mL BSA (all Sigma UK) pH7.4 at 25° C. in solid black 96 well plates. Briefly 26.5 pM human plasma Kallikrein (purchased from Stratech, UK) or 500 pM rat plasma Kallikrein (expressed and purified in house) were incubated in the absence or presence of increasing concentrations of test peptide for 15 minutes before addition of the fluorogenic substrate Z-PheArg-AMC (Enzo Lifesciences UK) to a final assay concentration of 100 μM in 4% DMSO. Release of AMC was measured using a Pherastar FS (BMG Labtech), excitation 360 nm, emission 460 nm. The rate of the linear phase of the reaction, typically 5 to 45 minutes, was calculated in MARS data analysis software (BMG labtech). The rate was then used to calculate the IC50 and Ki in Prism (GraphPad). A four parameter inhibition non-linear regression equation was used to calculate the IC50.
Peptides were dissolved as the TFA-salts in their powder form, and stock solutions were usually prepared in water. All solutions were centrifuged and filtered ([…] syringe filters) prior absorption measurement at 280 nm. Extinction coefficients were calculated based on the Trp/Tyr content of the peptide, and that of TMB (the TMB core, when contained in a peptide, has an ε of ˜300 M^−1cm^−1). For peptides containing non-natural amino acids with suspected chromophoric properties (i.e. NorHar, 4PhenylPro, 3Pal, 4Pal, Tic, 4GuanPhe, 4,4-BPAI, 3,3-DPA, 1NAI, 2NAI, 4BenzylPro, Ind) concentrations were determined by weighing the powder and dissolving the peptide in a defined quantity of water.

rat plasma Kallikrein [2] = target: T2, rat plasma Kallikrein; conditions: Table 1; read-out: Ki (nM) (rat kallikrein); cited from earlier work
[3] = Plasma stability / fragment profiling Method #2 (MALDI-TOF, 95% plasma), human plasma; assay type: in vitro ADME; conditions: Table 25a, peptide fragments observed after incubation in human plasma
Description: To obtain stability data more rapidly, peptides were also assessed in 95% plasma. Here, PBS was omitted, and a 1 mM peptide stock (in DMSO) was directly diluted into plasma (i.e. 2.5 uL stock into 47.5 uL plasma), giving a final concentration of 50 uM. 5 uL samples were taken at appropriate time points and frozen at −80 deg C. For analysis, the samples were defrosted, mixed with 15 uL of 1:1 acetonitrile:methanol, and centrifuged at 13 k for 5 min. 5 uL of the peptide-containing supernatant was aspirated and mixed with 30 mM ammonium bicarbonate in a 1:1 mixture of acetonitrile:H2O. 1 uL of this was then spotted on the MALDI plate and analysed as described above. As above, it should be noted that this is a qualitative assay serves to detect relative changes in plasma stability.
Ac-06-34-18(TMB)-NH2 Phe2 Tyr4 (referred to as wild type peptide) was subsequently subjected to human plasma, and analysed for fragments to appear over time. This was compared to the degradation profile observed in human plasma using the NMe-Arg5 derivative of 06-34-18 (FIGS. 18a and 18b). Fragmentation was determined according to Method #2.

SMILES | Ki (human plasma Kallikrein) [nM] | Ki (rat plasma Kallikrein [1]) [nM] | F (Kivar/KiWT) (human plasma Kallikrein) | pKi (human plasma Kallikrein) | Fragments (human plasma) [3] | other results
CC(=O)N[C@H]1CSCc2cc3cc(c2)CSC[C@H](NC(=O)[C@H](CCCCNC(=N)N)NC(=O)[C@H](Cc2ccc(O)cc2)NC(=O)[C@@H]2CCN2C(=O)[C@H](Cc2ccccc2)NC(=O)[C@H](CO)NC1=O)C(=O)N[C@@H](C)CN[C@@H](Cc1c[nH]cn1)C(=O)N[C@@H](CCC(N)=O)C(=O)N[C@@H](CC(=O)O)C(=O)N[C@@H](CC(C)C)C(=O)N[C@H](C(N)=O)CSC3 | 0.44 | 41 | – | – | – | –
CC(=O)N[C@H]1CSCc2cc3cc(c2)CSC[C@H](NC(=O)[C@H](CCCCNC(=N)N)NC(=O)[C@H](C)NC(=O)[C@@H]2CCN2C(=O)[C@H](Cc2c[nH]c4ccccc24)NC(=O)[C@H](CO)NC1=O)C(=O)N[C@@H](c1ccccc1)C(=O)N[C@@H](Cc1c[nH]cn1)C(=O)N[C@@H](CCC(N)=O)C(=O)N[C@@H](CC(=O)O)C(=O)N[C@@H](CC(C)C)C(=O)N[C@H](C(N)=O)CSC3 [Ac-(06-34-18) Aze3 HArg5 Phg6] (Ac-CSW[Aze]A[hArg]C[Phg]HQDLC-NH2; linker 1-7-13 via TBMB) | 0.52 | 57 | – | – | – | –
CC(=O)N[C@H]1CSCc2cc3cc(c2)CSC[C@H](NC(=O)[C@H](CCCCNC(=N)N)NC(=O)[C@H](Cc2ccc(O)cc2)NC(=O)[C@@H]2CCN2C(=O)[C@H](Cc2ccccc2)NC(=O)[C@H](CO)NC1=O)C(=O)N[C@@H](CC(C)C)C(=O)N[C@@H](Cc1c[nH]cn1)C(=O)N[C@@H](CCC(=O)O)C(=O)N[C@@H](CC(=O)O)C(=O)N[C@@H](CC(C)C)C(=O)N[C@H](C(N)=O)CSC3 [Ac-(06-34-18) Phe2 Aze3 Tyr4 HArg5 Glu8] (Ac-CSF[Aze]Y[hArg]CLHEDLC-NH2; linker 1-7-13 via TBMB) | 1.65 | 23 | – | – | – | –
CC(=O)N[C@H]1CSCc2cc3cc(c2)CSC[C@H](NC(=O)[C@H](CCCCNC(=N)N)NC(=O)[C@H](Cc2ccc(O)cc2)NC(=O)[C@@H]2CCN2C(=O)[C@H](Cc2ccccc2)NC(=O)[C@H](CO)NC1=O)C(=O)N[C@@H](c1ccccc1)C(=O)N[C@@H](Cc1c[nH]cn1)C(=O)N[C@@H](CCC(N)=O)C(=O)N[C@@H](CC(=O)O)C(=O)N[C@@H](CC(C)C)C(=O)N[C@H](C(N)=O)CSC3 [Ac-(06-34-18) Phe2 Aze3 Tyr4 HArg5 Phg6] (Ac-CSF[Aze]Y[hArg]C[Phg]HQDLC-NH2; linker 1-7-13 via TBMB) | 0.32 | 12 | – | – | – | –
CC(=O)N[C@H]1CSCc2cc3cc(c2)CSC[C@H](NC(=O)[C@H](CCCCNC(=N)N)NC(=O)[C@H](Cc2ccc(O)cc2)NC(=O)[C@@H]2CCN2C(=O)[C@H](Cc2ccccc2)NC(=O)[C@H](CO)NC1=O)C(=O)N[C@@H](CC(C)C)C(=O)N[C@@H](Cc1c[nH]cn1)C(=O)N[C@@H](CCC(N)=O)C(=O)N[C@@H](CC(=O)O)C(=O)N[C@@H](CC(C)C)C(=O)N[C@H](C(N)=O)CSC3 [Ac-(06-34-18) Phe2 Aze3 Tyr4 HomoArg5] (Ac-CSF[Aze]Y[hArg]CLHQDLC-NH2; linker 1-7-13 via TBMB) | – | – | – | – | – | Ki (rat plasma Kallikrein [2]): 3 nM
CC(=O)N[C@H]1CSCc2cc3cc(c2)CSC[C@H](NC(=O)[C@H](CCCNC(=N)N)NC(=O)[C@H](Cc2ccc(O)cc2)NC(=O)[C@@H]2CCN2C(=O)[C@H](Cc2ccccc2)NC(=O)[C@H](CO)NC1=O)C(=O)N[C@@H](C(C)(C)C)C(=O)N[C@@H](Cc1c[nH]cn1)C(=O)N[C@@H](CCC(N)=O)C(=O)N[C@@H](CC(=O)O)C(=O)N[C@@H](CC(C)C)C(=O)N[C@H](C(N)=O)CSC3 [Ac-(06-34-18) Phe2 Aze3 Tyr4 tBuGly6] (Ac-CSF[Aze]YRC[Tle]HQDLC-NH2; linker 1-7-13 via TBMB) | 1.91 | 193 | – | – | – | –
CC(=O)N[C@H]1CSCc2cc3cc(c2)CSC[C@H](NC(=O)[C@H](Cc2ccc(NC(=N)N)cc2)NC(=O)[C@H](Cc2ccc(O)cc2)NC(=O)[C@@H]2CCN2C(=O)[C@H](Cc2ccccc2)NC(=O)[C@H](CO)NC1=O)C(=O)N[C@@H](CC(C)C)C(=O)N[C@@H](Cc1c[nH]cn1)C(=O)N[C@@H](CCC(N)=O)C(=O)N[C@@H](CC(=O)O)C(=O)N[C@@H](CC(C)C)C(=O)N[C@H](C(N)=O)CSC3 [Ac-(06-34-18) Phe2 Aze3Tyr4 4GuanPhe5] (Ac-CSF[Aze]Y[Phe(4-guanidino)]CLHQDLC-NH2; linker 1-7-13 via TBMB) | – | – | – | – | – | Ki (rat plasma Kallikrein [2]): 1.2 nM
CC(=O)N[C@H]1CSCc2cc3cc(c2)CSC[C@H](NC(=O)[C@H](CCCNC(=N)N)N(C)C(=O)[C@H](Cc2ccc(O)cc2)NC(=O)[C@@H]2CCN2C(=O)[C@H](Cc2ccccc2)NC(=O)[C@H](CO)NC1=O)C(=O)N[C@@H](CC(C)C)C(=O)N[C@@H](Cc1c[nH]cn1)C(=O)N[C@@H](CCC(N)=O)C(=O)N[C@@H](CC(=O)O)C(=O)N[C@@H](CC(C)C)C(=O)N[C@H](C(N)=O)CSC3 [Ac-(06-34-18) Phe2 Aze3Tyr4 NMeArg5] (Ac-CSF[Aze]Y[NMeR]CLHQDLC-NH2; linker 1-7-13 via TBMB) | – | – | – | – | – | Ki (rat plasma Kallikrein [2]): 31.4 nM
CC(=O)N[C@H]1CSCc2cc3cc(c2)CSC[C@H](NC(=O)[C@H](CCCNC(=N)N)NC(=O)[C@H](Cc2ccc(O)cc2)NC(=O)[C@@H]2CCCN2C(=O)[C@H](Cc2ccccc2)NC(=O)[C@H](CO)NC1=O)C(=O)N[C@@H](CC(C)C)C(=O)N[C@@H](Cc1c[nH]cn1)C(=O)N(C)[C@@H](CCC(N)=O)C(=O)N[C@@H](CC(=O)O)C(=O)N[C@@H](CC(C)C)C(=O)N[C@H](C(N)=O)CSC3 [Ac-(06-34-18) Phe2 Tyr4 NMe-Gln8] (Ac-CSFPYRCLH[NMeQ]DLC-NH2; linker 1-7-13 via TBMB) | – | – | 149 | 7.20 | -R, -FPYR | –
CC(=O)N[C@H]1CSCc2cc3cc(c2)CSC[C@H](NC(=O)[C@H](CCCNC(=N)N)NC(=O)[C@H](Cc2ccc(O)cc2)NC(=O)[C@@H]2CCCN2C(=O)[C@H](Cc2ccccc2)NC(=O)[C@H](CO)NC1=O)C(=O)N[C@@H](CC(C)C)C(=O)N(C)[C@@H](Cc1cnc[nH]1)C(=O)N[C@@H](CCC(N)=O)C(=O)N[C@@H](CC(=O)O)C(=O)N[C@@H](CC(C)C)C(=O)N[C@H](C(N)=O)CSC3 [Ac-(06-34-18) Phe2 Tyr4 NMe-His7] (Ac-CSFPYRCL[NMeH]QDLC-NH2; linker 1-7-13 via TBMB) | – | – | 151 | 7.20 | -R, -FPYR | –
CC(=O)N[C@H]1CSCc2cc3cc(c2)CSC[C@H](NC(=O)[C@H](CCCNC(=N)N)NC(=O)[C@H](Cc2ccc(O)cc2)NC(=O)[C@@H]2CCCN2C(=O)[C@H](Cc2ccccc2)NC(=O)[C@H](CO)NC1=O)C(=O)N(C)[C@@H](CC(C)C)C(=O)N[C@@H](Cc1c[nH]cn1)C(=O)N[C@@H](CCC(N)=O)C(=O)N[C@@H](CC(=O)O)C(=O)N[C@@H](CC(C)C)C(=O)N[C@H](C(N)=O)CSC3 [Ac-(06-34-18) Phe2 Tyr4 NMe-Leu6] (Ac-CSFPYRC[NMeL]HQDLC-NH2; linker 1-7-13 via TBMB) | – | – | 137 | 7.24 | -R, -FPYR | –
CC(=O)N[C@H]1CSCc2cc3cc(c2)CSC[C@H](NC(=O)[C@H](CCCNC(=N)N)NC(=O)[C@H](Cc2ccc(O)cc2)NC(=O)[C@@H]2CCCN2C(=O)[C@H](Cc2ccccc2)NC(=O)[C@H](CO)NC1=O)C(=O)N[C@@H](CC(C)C)C(=O)N[C@@H](Cc1c[nH]cn1)C(=O)N[C@@H](CCC(N)=O)C(=O)N[C@@H](CC(=O)O)C(=O)N(C)[C@@H](CC(C)C)C(=O)N[C@H](C(N)=O)CSC3 [Ac-(06-34-18) Phe2 Tyr4 NMe-Leu10] (Ac-CSFPYRCLHQD[NMeL]C-NH2; linker 1-7-13 via TBMB) | – | – | 1396 | 6.23 | -R, -FPYR | –
